Test results reported in ChEMBL document CHEMBL5131385, “Novel piperazine based benzamide derivatives as potential anti-glioblastoma agents inhibiting cell proliferation and cell cycle progression” (Eur J Med Chem, 2022).
The source made the active and inactive calls. The calls are words filed in the database; no cut-off is given here.

Tests used:
[1] = Antiproliferative activity against human U-87 MG cells assessed as inhibition of cell proliferation measured after 72 hrs by CCK8 assay; type: functional, cell-based, U-87MG ATCC
C6 = test: Antiproliferative activity against rat C6 cells assessed as inhibition of cell proliferation measured after 72 hrs by CCK8 assay; type: functional, cell-based; conditions: C6, 72 h
U-251 [2] = test: Antiproliferative activity against human U-251 cells assessed as inhibition of cell proliferation measured after 72 hrs by CCK8 assay; type: functional, cell-based; conditions: U-251, 72 h
[3] = Induction of apoptosis in human U-87 MG cells assessed as early apoptotic cells at 1.20 uM incubated for 72 hrs by Annexin V-FITC/PI staining based flow cytometry method (reference value: 2.53 %); type: functional, U-87MG ATCC; conditions: dose 1.2 µM
U-251 [4] = test: Induction of apoptosis in human U-251 cells assessed as necrotic cells at 6 uM incubated for 72 hrs by Annexin V-FITC/PI staining based flow cytometry method (Rvb =0.51 %); type: functional
U-87MG ATCC [5] = test: Antitumor activity against human U-87 MG cells xenografted in BALB/c mouse assessed as decrease in tumor weight at 10 mg/kg,ip bid for 1 month; type: functional, organism-based; conditions: time 1.0 months
U-87MG ATCC [6] = test: Antitumor activity against human U-87 MG cells xenografted in BALB/c mouse assessed as decrease in tumor volume at 10 mg/kg,ip bid for 1 month; type: functional, organism-based; conditions: time 1.0 months
U-251 [7] = test: Induction of apoptosis in human U-251 cells assessed as viable cells at 6 uM incubated for 72 hrs by Annexin V-FITC/PI staining based flow cytometry method (reference value: 96.22 %); type: functional; conditions: read-out: Activity
[8] = Induction of apoptosis in human U-87 MG cells assessed as viable cells at 1.20 uM incubated for 72 hrs by Annexin V-FITC/PI staining based flow cytometry method (reference value: 96.84 %); type: functional, U-87MG ATCC; conditions: read-out: Activity
[9] = Induction of apoptosis in human U-87 MG cells assessed as necrotic cells at 1.20 uM incubated for 72 hrs by Annexin V-FITC/PI staining based flow cytometry method (reference value: 0.21 %); type: functional, U-87MG ATCC; conditions: dose 1.2 µM
U-251 [10] = test: Induction of apoptosis in human U-251 cells assessed as late apoptotic cells at 6 uM incubated for 72 hrs by Annexin V-FITC/PI staining based flow cytometry method (Rvb =1.31 %); type: functional
U-251 [11] = test: Induction of apoptosis in human U-251 cells assessed as early apoptotic cells at 6 uM incubated for 72 hrs by Annexin V-FITC/PI staining based flow cytometry method (Rvb =1.96 %); type: functional
[12] = Induction of apoptosis in human U-87 MG cells assessed as late apoptotic cells at 1.20 uM incubated for 72 hrs by Annexin V-FITC/PI staining based flow cytometry method (reference value: 0.42 %); type: functional, U-87MG ATCC; conditions: dose 1.2 µM

SMILES	IC50 (U-251 [2]) [µM]	IC50 [1] [µM]	IC50 (C6) [µM]	also measured
COCCN1CCN(c2ccc(C(F)(F)F)cc2C(=O)Nc2ccc(CNC(=O)OCc3cccnc3)cc2)CC1	> 30	8.58	13.9	–
COCCN1CCN(c2ccc(OC)cc2C(=O)Nc2ccc(CNC(=O)OCc3cccnc3)cc2)CC1	20.5	3.47	1.05	–
COCCN1CCN(c2c(C)cccc2C(=O)Nc2ccc(CNC(=O)OCc3cccnc3)cc2)CC1	9.29	1.01	0.44	–
COCCN1CCN(c2ccc(-c3ccccc3)cc2C(=O)Nc2ccc(CNC(=O)OCc3cccnc3)cc2)CC1	> 30	> 30	> 30	–
O=C(NCc1ccc(NC(=O)c2ccccc2N2CCN(CC3CC3)CC2)cc1)OCc1cccnc1	10.6	1.08	0.8	–
COCCN1CCN(c2ccc(Cl)cc2C(=O)Nc2ccc(CNC(=O)OCc3cccnc3)cc2)CC1	10.5	1.01	1.76	–
COCCN1CCN(c2ccc(C)cc2C(=O)Nc2ccc(CNC(=O)OCc3cccnc3)cc2)CC1	12.7	1.9	1.29	–
Nc1ccccc1NC(=O)c1ccc(CNC(=O)OCc2cccnc2)cc1 [ENTINOSTAT]	> 30	4.34	0.33	–
Cn1nnc2c(C(N)=O)ncn2c1=O [TEMOZOLOMIDE]	> 30	> 30	> 30	Activity [3]: 2.5%; Activity (U-251 [4]): 0.49%; Activity (U-87MG ATCC [5]): Active; Activity (U-87MG ATCC [6]): Active; viability at 6 µM (U-251 [7]): 96.2%; viability at 1.2 µM [8]: 96.2%; Activity [9]: 0.27%; Activity (U-251 [10]): 1.73%; Activity (U-251 [11]): 1.6%; Activity [12]: 0.98%
CCCN1CCN(c2ccccc2C(=O)Nc2ccc(CNC(=O)OCc3cccnc3)cc2)CC1	6.79	0.42	0.36	–
COCCN1CCN(c2ccc(Br)cc2C(=O)Nc2ccc(CNC(=O)OCc3cccnc3)cc2)CC1	24.7	2.66	2.65	–
COCCN1CCN(c2ccc(NC(=O)OC(C)(C)C)cc2C(=O)Nc2ccc(CNC(=O)OCc3cccnc3)cc2)CC1	> 30	> 30	> 30	–
COCCN1CCN(c2cccc(F)c2C(=O)Nc2ccc(CNC(=O)OCc3cccnc3)cc2)CC1	25	4	0.79	–

Molecules with a lower IC50 (U-251 [2]), results first:

IC50 (U-251 [2]) [µM]	SMILES	IC50 [1] [µM]	IC50 (C6) [µM]	also measured
2.7	O=C(NCc1ccc(NC(=O)c2ccccc2N2CCN(C3CC3)CC2)cc1)OCc1cccnc1	1.04	1.12	–
4.55	CCN1CCN(c2ccccc2C(=O)Nc2ccc(CNC(=O)OCc3cccnc3)cc2)CC1	0.43	0.36	–
3.36	COCCN1CCN(c2ccccc2C(=O)Nc2ccc(CNC(=O)OCc3cccnc3)cc2)CC1	0.4	0.24	–
2.35	O=C(NCc1ccc(NC(=O)c2ccccc2N2CCN(C3COC3)CC2)cc1)OCc1cccnc1	0.49	0.57	–
5.42	CS(=O)(=O)N1CCN(c2ccccc2C(=O)Nc2ccc(CNC(=O)OCc3cccnc3)cc2)CC1	1.02	0.85	–
6.11	O=C(NCc1ccc(NC(=O)c2ccccc2N2CCOCC2)cc1)OCc1cccnc1	0.89	4.82	–
6.09	CC(C)N1CCN(c2ccccc2C(=O)Nc2ccc(CNC(=O)OCc3cccnc3)cc2)CC1	0.25	0.41	–
2.3	COCCN1CCN(c2cc(F)ccc2C(=O)Nc2ccc(CNC(=O)OCc3cccnc3)cc2)CC1	0.53	0.22	–
2.97	COCCN1CCN(c2cc(C)ccc2C(=O)Nc2ccc(CNC(=O)OCc3cccnc3)cc2)CC1	0.53	0.89	–
4	COCCN1CCN(c2ccc(N)cc2C(=O)Nc2ccc(CNC(=O)OCc3cccnc3)cc2)CC1	0.56	0.26	–
4.05	O=C(NCc1ccc(NC(=O)c2ccccc2N2CCN(C3CCC3)CC2)cc1)OCc1cccnc1	0.62	1.03	–
3.23	O=C(NCc1ccc(NC(=O)c2ccccc2N2CCN(CCO)CC2)cc1)OCc1cccnc1	0.64	0.29	–
5.89	O=C(NCc1ccc(NC(=O)c2ccccc2N2CCN(CCF)CC2)cc1)OCc1cccnc1	0.41	0.46	–
6.25	CN1CCN(c2ccccc2C(=O)Nc2ccc(CNC(=O)OCc3cccnc3)cc2)CC1	1.25	0.52	–
